Columns and labels:
[1] = tested on: TNBS-induced SD rat models of chronic colitis with intestinal fibrosis; test: Pharmacodynamic experiment of TNBS-induced rat models of chronic colitis with intestinal fibrosis; type: in vivo, SD rats; conditions: for AUC(0-10 d) (D 0-D 10) of DAI scores: after first TNBS induction; for AUC(0-10 d) (D 0-D 10) of DAI scores / AUC(14-24 d) (D 14-D 24) of DAI scores: mean ± SD; for AUC(14-24 d) (D 14-D 24) of DAI scores: after second TNBS induction; for CVF (%) of colon middle segment: Masson staining, model control 6.39 ± 3.16, normal 0.74 ± 0.32; for Inflammatory response (points), histopathological score of colon tissue / Tissue ulcer (points), histopathological score of colon tissue: colon middle segment, model control 2.00 ± 0.00; for HYP (μg/g) of colon middle segment: model control 2109.99 ± 385.85, normal 1141.78 ± 106.42; for Change rate of AUC(0-10 d) (%) / Change rate of AUC(14-24 d) (%): relative to model control group
Text: • 1) Animals: SD rats, specific pathogen-free (SPF) grade, male, aged 7 to 8 weeks at the time of grouping, with 10 rats per group. The animals were supplied by Beijing HFK Bioscience Co., Ltd. • 2) Reagents, positive drugs, and test drugs • A. Reagents
• B. Positive Drugs: Sulfasalazine Colon-Soluble Capsules, Supplied by Guangdong Qiangji Pharmaceutical Co., Ltd. • C. Test Drug: Compound I, Supplied by Guangzhou JOYO Pharmatech Co., Ltd. • 3) Modeling method
TNBS two-enema method: After the adaptation period inspection and observation were qualified, experimental animals were screened by body weight and randomly divided into six experimental groups based on body weight. The groups included a normal control group, a model control group, a positive drug treatment group, a test compound low dose treatment group, a test compound medium dose treatment group, and a test compound high dose treatment group, with 10 rats in each group. On the day of grouping, animals in the normal control group were administered 50% ethanol solution via enema, while animals in the other groups were administered TNBS ethanol solution via enema. The dose of TNBS was 30 mg per animal, with the induction of the model performed twice at a frequency of once every two weeks. The experimental period lasted for 4 weeks, during which all animals were given normal access to water and food. • 4) Grouping and administration
The Disease Activity Index (DAI) scoring was performed on each group of experimental animals based on indicators such as animal body weight, stool morphology and characteristics, and occult blood or hematochezia. Scoring was performed after model induction, once a day for 10 consecutive days, for a total of 2 rounds.
Note: The DAI score was performed based on the percentage of body weight loss, stool morphology, and progression of blood in the stool. Statistical analysis was conducted comprehensively using these three scoring indicators. • 6) Endpoint sample collection, histopathological analysis, and hydroxyproline content analysis • A. After euthanizing the animals with pentobarbital sodium anesthesia, the colon, i.e., the segment from the end of cecum to the anus, was excised. The intestinal segment was flushed with normal saline, and the entire colon was evenly divided into upper, middle, and lower segments. The middle segment of the colon was further divided, with part of the tissue quickly frozen in liquid nitrogen and stored in a −80° C. refrigerator for measuring the total hydroxyproline levels in the middle segment samples of the colon of animals in each group. The remaining middle segment tissue was fixed in 10% formaldehyde, embedded in paraffin, and sectioned into 3 μm-thick slices. These slices were then deparaffinized in xylene, rehydrated through a graded ethanol series, subjected to H&E staining and Masson staining, dehydrated, cleared, sealed, and observed under a microscope to capture histopathological changes. Routine tissue freezing was performed. • B. Histopathological analysis
• a: Based on the Masson staining results, the area of collagen staining-positive regions and the total area of samples from the middle segment samples of the colon (submucosa and muscularis) of animals in each experimental group were statistically analyzed using Image J to calculate the collagen volume fraction (CVF %) of each sample. • C. Detection of hydroxyproline levels in the colon
The middle segment samples of the colon were processed according to the instructions, using the hydroxyproline detection kit. The total hydroxyproline levels in the middle segment samples of the colon of animals in each group were measured.

[2] = tested on: carbon tetrachloride-induced SD rat models of liver fibrosis; test: In vivo pharmacodynamic study on carbon tetrachloride-induced rat models of liver fibrosis; parameters: species or system SD rats; conditions: for Liver fibrosis score (points): Sirius Red staining, model control 4.90 ± 0.88; for Liver CVF (%): model control 8.75 ± 2.39, normal 1.24 ± 0.23; for Liver HYP content: model control 702.84 ± 173.44, normal 307.30 ± 78.13
Text: • 1) Animals: SD rats, specific pathogen-free (SPF) grade, male, aged 7 to 8 weeks at the time of grouping, with 10 mice per group. The animals were supplied by Beijing HFK Bioscience Co., Ltd. • 2) Reagents, positive drugs, and test drugs • A. Reagents
• B. Positive Drug: Pirfenidone, Supplied by Biochempartner. • C. Test Drug: compound I, supplied by Guangzhou JOYO Pharmatech Co., Ltd. • 3) Modeling method
Intraperitoneal injection method of carbon tetrachloride: After the adaptation period inspection and observation were qualified, experimental animals were screened by body weight and randomly divided into a normal control group and a model induction group. Starting on the first day of grouping, animals in the model induction group were intraperitoneally injected with a 20% carbon tetrachloride solution dissolved in corn oil, at a modeling frequency of twice a week for six consecutive weeks. After two weeks of carbon tetrachloride induction, animals in the model induction group were randomly subdivided a second time into 5 experimental groups based on their alanine transaminase (ALT) levels (with body weight used as a calibration factor), including the model control group, positive drug treatment group, test compound low dose treatment group, test compound medium dose treatment group, and test compound high dose treatment group. Animals in the normal control group were administered the corresponding vehicle. The experimental period lasted for 6 weeks, during which all animals were given normal access to water and food. • 4) Grouping and administration info
• a: The test compound vehicle was an aqueous solution of 0.5% (w/v) methylcellulose and 0.2% (v/v) Tween 80. • b: An aqueous solution of 0.5% (w/v) methylcellulose and 0.2% (v/v) Tween 80 was used as the vehicle and prepared to the required concentration. • 5) Endpoint sample collection, histopathological analysis, and hydroxyproline content analysis. • A. After euthanizing the animals with pentobarbital sodium anesthesia, the liver was excised and rinsed with normal saline. The liver was divided into three segments: the large lobe, the left lobe, and the right-middle lobe. The large lobe tissue was quickly frozen in liquid nitrogen and stored in a −80° C. refrigerator for measuring the total hydroxyproline levels of animal liver samples in each group. The tissues of left lobe and right-middle lobe of liver were fixed in 10% formaldehyde, embedded in paraffin, and sectioned into 3 μm-thick slices. These slices were then deparaffinized in xylene, rehydrated through a graded ethanol series, subjected to Sirius Red staining, dehydrated, cleared, sealed, and observed under a microscope to capture histopathological changes. Routine tissue freezing was performed. • B. Analysis of fibrosis levels in liver tissue sections;
Based on Sirius Red staining results of liver sections, 1) fibrosis staging was scored according to the scoring criteria listed in Table 3; 2) using Image J, the liver fibrotic area and the total sample area of animals in each experimental group were counted to calculate the collagen volume fraction (CVF %) for each sample. • C. Detection of hydroxyproline levels in liver
The liver large lobe samples were processed according to the instructions using the hydroxyproline detection kit. The total hydroxyproline levels in the liver samples of animals in each group were detected.

[3] = sulfasalazine 50 mg/kg oral gavage twice a day
[4] = sulfasalazine 50 mg/kg twice a day
[5] = sulfasalazine 50 mg/kg twice a day for 4 weeks
[6] = Compound I high dose 15 mg/kg oral gavage twice a day
[7] = Compound I high dose 15 mg/kg twice a day for 4 weeks
[8] = Compound I high dose 15 mg/kg twice a day
[9] = Compound I low dose 3 mg/kg oral gavage twice a day
[10] = Compound I low dose 3 mg/kg twice a day for 4 weeks
[11] = Compound I low dose 3 mg/kg twice a day
[12] = Compound I medium dose 6 mg/kg oral gavage twice a day
[13] = Compound I medium dose 6 mg/kg twice a day for 4 weeks
[14] = Compound I medium dose 6 mg/kg twice a day
[15] = Compound I high dose 30 mg/kg twice a day for 4 weeks
[16] = Compound I medium dose 10 mg/kg twice a day for 4 weeks
[17] = pirfenidone 150 mg/kg twice a day for 4 weeks

## O=C(O)c1cc(/N=N/c2ccc(S(=O)(=O)Nc3ccccn3)cc2)ccc1O [Sulfasalazine, reference compound]
[1]; [3]
  AUC(0-10 d) (D 0-D 10) of DAI scores: 29.80 ± 2.79
  AUC(14-24 d) (D 14-D 24) of DAI scores: 11.70 ± 1.69
[1]; [4]
  Proliferation of connective tissue and fibrosis process in submucosa and muscularis of the colon: significant improvements and healing
  Change rate of AUC(0-10 d) (%): −34.86%
  Change rate of AUC(14-24 d) (%): −51.35%
[1]; [5]
  CVF (%) of colon middle segment: 2.67 ± 1.06 %
  Inflammatory response (points), histopathological score of colon tissue: 0.60 ± 0.52 points
  Tissue ulcer (points), histopathological score of colon tissue: 0.50 ± 0.53 points
  HYP (μg/g) of colon middle segment: 1299.79 ± 161.27 µg/g

## CC1(c2ccc(=O)n(-c3ccsc3)c2)COC1 [Compound I]
[1]; Compound I 3.0, 6.0 and 15.0 mg/kg twice a day, 4 weeks
  Efficacy evaluation result (conclusion): significant therapeutic effect
[1]; [6]
  AUC(0-10 d) (D 0-D 10) of DAI scores: 33.50 ± 3.97
  AUC(14-24 d) (D 14-D 24) of DAI scores: 15.40 ± 3.50
[1]; [7]
  CVF (%) of colon middle segment: 2.37 ± 1.33 %
  Inflammatory response (points), histopathological score of colon tissue: 0.80 ± 0.79 points
  Tissue ulcer (points), histopathological score of colon tissue: 0.70 ± 0.67 points
  HYP (μg/g) of colon middle segment: 1270.56 ± 287.01 µg/g
[1]; [8]
  Change rate of AUC(0-10 d) (%): −26.78%
  Change rate of AUC(14-24 d) (%): −35.97%
[1]; [9]
  AUC(0-10 d) (D 0-D 10) of DAI scores: 37.15 ± 4.93
  AUC(14-24 d) (D 14-D 24) of DAI scores: 19.30 ± 2.79
[1]; [10]
  CVF (%) of colon middle segment: 2.97 ± 1.78 %
  Inflammatory response (points), histopathological score of colon tissue: 1.00 ± 0.67 points
  Tissue ulcer (points), histopathological score of colon tissue: 0.80 ± 0.63 points
  HYP (μg/g) of colon middle segment: 1333.43 ± 155.33 µg/g
[1]; [11]
  Change rate of AUC(0-10 d) (%): −18.80%
  Change rate of AUC(14-24 d) (%): −19.75%
[1]; [12]
  AUC(0-10 d) (D 0-D 10) of DAI scores: 36.05 ± 4.87
  AUC(14-24 d) (D 14-D 24) of DAI scores: 17.25 ± 3.16
[1]; [13]
  CVF (%) of colon middle segment: 2.36 ± 1.47 %
  Inflammatory response (points), histopathological score of colon tissue: 0.70 ± 0.67 points
  Tissue ulcer (points), histopathological score of colon tissue: 0.70 ± 0.67 points
  HYP (μg/g) of colon middle segment: 1228.40 ± 235.44^####+ μg/g
[1]; [14]
  Change rate of AUC(0-10 d) (%): −21.20%
  Change rate of AUC(14-24 d) (%): −28.27%
[1]; all Compound I treatment groups (3, 6, 15 mg/kg twice a day)
  Colon tissue healing and degree of fibrosis (histopathology): tissue healing and a reduction in the degree of fibrosis were observed
[1]; oral gavage twice a day, certain dose-dependent relationship
  Effective dose (colon fibrosis, HYP level improvement): 3.0 mg/kg
[1]; oral gavage twice a day, chronic colitis disease process
  Effective low dose (DAI AUC(0-10 d) improvement): 3.0 mg/kg
[2]; Compound I 3.0, 10.0 and 30.0 mg/kg twice a day, 4 weeks
  Efficacy evaluation result (conclusion): significant therapeutic effect
[2]; Compound I high dose 30 mg/kg oral gavage twice a day for 4 weeks
  Liver fibrosis score (points): 4.20 ± 0.92 points
[2]; [15]
  Liver CVF (%): 5.60 ± 1.92 %
  Liver HYP content: 607.79 ± 112.74 µg/g
[2]; Compound I low dose 3 mg/kg oral gavage twice a day for 4 weeks
  Liver fibrosis score (points): 4.40 ± 0.70 points
[2]; [10]
  Liver CVF (%): 5.02 ± 1.42 %
  Liver HYP content: 716.17 ± 105.01 µg/g
[2]; Compound I medium and high dose treatment groups (10, 30 mg/kg twice a day), some animals, Sirius Red
  Pseudolobular structure of the liver under light microscope: tended to disintegrate
[2]; Compound I medium dose 10 mg/kg oral gavage twice a day for 4 weeks
  Liver fibrosis score (points): 4.00 ± 0.94 points
[2]; [16]
  Liver CVF (%): 4.87 ± 1.68 %
  Liver HYP content: 560.60 ± 114.04 µg/g
[2]; each Compound I treatment group vs model control, medium and high dose most obvious
  Hepatocyte fat degeneration and swelling degeneration in the central vein area of the liver: reduced to some extent

## Cc1ccc(=O)n(-c2ccccc2)c1 [Pirfenidone, reference compound]
[2]; pirfenidone 150 mg/kg oral gavage twice a day for 4 weeks
  Liver fibrosis score (points): 5.40 ± 0.52 points
[2]; [17]
  Liver CVF (%): 6.58 ± 2.20 %
  Liver HYP content: 611.19 ± 183.66 µg/g
[2]; pirfenidone 150 mg/kg twice a day, Sirius Red
  Liver histopathological improvement under light microscope: no significant improvement

— patent US20260027094A1, “USE OF PYRIDONE DERIVATIVE” (GUANGZHOU JOYO PHARMATECH CO., LTD, priority 2022, published 2026)
